Experimental data as given in patent publication US20130030172A1, “Methods of Preparing Quinoline Derivatives” (Exelixis, Inc., priority 2008, published 2013).

What was measured:
c-Met = c-Met (Homo sapiens, UniProt P08581); test: c-Met kinase assay as described in WO 2005/030140 A2; type: biochemical; settings: assays described in WO 2005/030140 A2
From the text: (§1) Other utilities of this compound are further described in WO 2005/030140 A2.

c-Kit = c-Kit (Homo sapiens, UniProt P10721); test: c-Kit kinase assay as described in WO 2005/030140 A2; type: biochemical; settings: assays described in WO 2005/030140 A2
c-Kit, sequence (P10721 26-976): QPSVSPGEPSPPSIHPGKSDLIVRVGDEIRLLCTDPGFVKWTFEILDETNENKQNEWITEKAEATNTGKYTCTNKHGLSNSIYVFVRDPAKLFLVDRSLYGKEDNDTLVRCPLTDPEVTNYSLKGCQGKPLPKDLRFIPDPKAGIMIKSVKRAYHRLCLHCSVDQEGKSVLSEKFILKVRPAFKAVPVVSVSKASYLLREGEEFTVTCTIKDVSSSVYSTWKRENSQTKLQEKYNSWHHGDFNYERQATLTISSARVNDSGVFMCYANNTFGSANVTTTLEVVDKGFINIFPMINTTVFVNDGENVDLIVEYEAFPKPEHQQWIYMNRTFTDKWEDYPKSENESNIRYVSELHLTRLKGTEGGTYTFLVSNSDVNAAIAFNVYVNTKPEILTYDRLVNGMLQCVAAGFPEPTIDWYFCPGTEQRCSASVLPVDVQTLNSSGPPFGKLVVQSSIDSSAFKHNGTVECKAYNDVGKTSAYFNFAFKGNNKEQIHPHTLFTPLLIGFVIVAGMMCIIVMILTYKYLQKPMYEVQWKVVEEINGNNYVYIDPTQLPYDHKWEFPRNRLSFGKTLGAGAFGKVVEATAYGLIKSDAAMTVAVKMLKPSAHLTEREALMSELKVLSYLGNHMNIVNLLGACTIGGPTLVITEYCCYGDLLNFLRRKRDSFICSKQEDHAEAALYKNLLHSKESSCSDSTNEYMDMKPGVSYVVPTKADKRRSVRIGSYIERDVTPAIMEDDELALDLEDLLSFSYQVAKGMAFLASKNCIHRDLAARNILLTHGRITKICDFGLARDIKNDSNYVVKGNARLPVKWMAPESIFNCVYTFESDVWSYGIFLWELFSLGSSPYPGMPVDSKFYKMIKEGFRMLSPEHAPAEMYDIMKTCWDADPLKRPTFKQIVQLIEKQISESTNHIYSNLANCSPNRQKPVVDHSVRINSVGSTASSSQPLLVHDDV
From the text: as §1

c-Met, sequence (P08581 25-1390): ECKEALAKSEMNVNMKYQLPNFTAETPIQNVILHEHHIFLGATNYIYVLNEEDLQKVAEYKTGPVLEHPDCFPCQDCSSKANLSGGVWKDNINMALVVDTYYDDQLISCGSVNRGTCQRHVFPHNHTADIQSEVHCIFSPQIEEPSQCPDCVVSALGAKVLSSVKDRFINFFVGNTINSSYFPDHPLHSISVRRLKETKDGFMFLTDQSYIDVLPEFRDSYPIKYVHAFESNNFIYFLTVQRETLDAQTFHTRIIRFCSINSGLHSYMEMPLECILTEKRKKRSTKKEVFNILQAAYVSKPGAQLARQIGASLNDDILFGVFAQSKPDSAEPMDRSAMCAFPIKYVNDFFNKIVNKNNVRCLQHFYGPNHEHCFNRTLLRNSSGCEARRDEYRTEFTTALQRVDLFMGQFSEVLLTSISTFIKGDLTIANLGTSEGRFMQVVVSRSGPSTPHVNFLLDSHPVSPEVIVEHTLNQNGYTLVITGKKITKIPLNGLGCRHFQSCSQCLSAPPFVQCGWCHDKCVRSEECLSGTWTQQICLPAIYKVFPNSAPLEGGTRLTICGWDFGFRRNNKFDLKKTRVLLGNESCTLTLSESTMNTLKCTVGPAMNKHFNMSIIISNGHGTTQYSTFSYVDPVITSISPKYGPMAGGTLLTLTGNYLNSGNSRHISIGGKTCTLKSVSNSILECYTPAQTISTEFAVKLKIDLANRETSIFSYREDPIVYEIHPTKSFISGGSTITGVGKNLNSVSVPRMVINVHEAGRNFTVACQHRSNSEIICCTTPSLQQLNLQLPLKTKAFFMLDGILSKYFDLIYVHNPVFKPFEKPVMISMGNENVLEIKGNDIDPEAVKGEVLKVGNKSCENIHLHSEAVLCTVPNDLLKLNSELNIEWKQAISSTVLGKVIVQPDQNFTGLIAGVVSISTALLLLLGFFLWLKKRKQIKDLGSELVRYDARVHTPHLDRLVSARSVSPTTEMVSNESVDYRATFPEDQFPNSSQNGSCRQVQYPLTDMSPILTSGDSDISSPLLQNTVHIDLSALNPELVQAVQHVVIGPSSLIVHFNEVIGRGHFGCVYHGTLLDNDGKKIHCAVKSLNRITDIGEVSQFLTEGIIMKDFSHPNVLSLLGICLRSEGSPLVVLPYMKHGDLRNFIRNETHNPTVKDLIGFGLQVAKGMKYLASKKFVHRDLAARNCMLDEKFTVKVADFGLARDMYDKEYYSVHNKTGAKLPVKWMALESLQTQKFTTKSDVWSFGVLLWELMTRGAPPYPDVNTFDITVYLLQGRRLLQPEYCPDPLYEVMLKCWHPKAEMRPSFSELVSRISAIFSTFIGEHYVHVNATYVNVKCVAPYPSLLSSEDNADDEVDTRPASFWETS

IC50 (c-Met): < 50 nM | IC50 (c-Kit): < 50 nM
SMILES: COc1cc2c(Oc3ccc(NC(=O)C(=O)NCCc4ccccc4)cc3F)ccnc2cc1OCCCN1CCOCC1 [title compound, N-{3-Fluoro-4-[6-methoxy-7-(3-morpholin-4-yl-propoxy)-quinolin-4-yloxy]-phenyl}-N′-phenethyl-oxalamide]
